Legend:
dog's stomach = type: in vivo, Beagle dog; settings: dog, in vivo
Method: Five grams of the present substance (each of Specimens Nos. 1, 2, 3, 4, 5, 6, 7, 8, 9, 10 and 11) and of aspirin were respectively administered to each Beagle of body weight of 9 to 12 kg as an aqueous suspension in distilled water of adjusted pH of 3, and after 90 min of the administration, the state of hemorrhage in the dog's stomach was examined.

[1] = system: platelets (3 times concentrated PRP), cyclic AMP; experiment: Level of cyclic AMP in platelets; type: cell-based; settings: room temperature, 5 min
Method: PRP (platelet rich plasma) was prepared by the predetermined method and it was centrifugated for 20 min at 700XG to obtain a supernatant liquid named PPP (platelet poor plasma). The precipitate was re-floated in 1/3 times by volume of PPP to prepare 3 times concentrated PRP.
In the thus prepared concentrated PRP, each aqueous solution of the present substances of a pre-determined concentration (in this case, Specimens Nos. 4, 7 and 8) and an aqueous physiological saline solution, and the mixture was incubated at room temperature for 5 min. Then, the procedures of boiling, homogenating and centrifugating were carried out in this order, and 50 μl of the supernatant liquid was used for measuring cyclic AMP. The measurement was carried out following the method of Gilman. As a positive control, PGE1 was used.

male SHR rats = experiment: Effect of aspirin on the hypotensive action; type: in vivo, rat (SHR); settings: 100 mg/kg p.o., after 6 hours; for Alteration of blood pressure, Case (b): with aspirin 200 mg/kg before and after; for Alteration of blood pressure, Case (a): without aspirin
Method: It is known that PGs are produced from arachidonic acid and the conversion of arachidonic acid into PGG2 is mediated by cyclooxygenase. Also it is known that aspirin inactivates cyclooxygenase, and that the […] of PGs is completely stopped by the administration of aspirin to a mammal.
Accordingly, the following experiment was carried out: To groups of male SHR rats of 30 to 40 weeks after birth, (a) one of the present substance was forcibly administered orally at 100 mg/kg as a solution in distilled water or an aqueous suspension in 2% solution of carboxymethylcellulose or (b) aspirin was forcibly administered orally, before and after one hour of the administration of the present substance, at 200 mg/kg. The blood pressure of the thus treated rats was measured with the time passage.

[2] = system: streptozotocin diabetic rats; experiment: Blood sugar of diabetic rats; type: in vivo, male Sprague-Dowley rats; settings: 100 mg/kg p.o., 6 hours, diabetic rat; not administered 412.1, normal 76.7
Method: Groups of male Sprague-Dowley rats of body weight of about 200 g are used for the present experiments. Some groups of the rats were intravenously administered with streptozotocin at 80 mg/kg one to three months in advance of the beginning of the present experiment to be in a state of diabetes mellitus. Those rats of the same strain, the same sex and the same age without being administered with streptozotocin were used as control.
The present substances (Specimens Nos. 4, 7 and 8) were respectively administered to the groups of rats suffering from the artificial diabetes mellitus forcibly by oral route at a rate of 100 mg/kg as an aqueous solution in distilled water.
After 6 hours of the administration of the present substance, blood specimen was collected from the rat under anesthesia by ether in an amount of 0.5 ml/animal, and the content of blood sugar was measured by the enzymatic method.

male Sprague-Dowley rats = experiment: Foot-oedema induced by carrageenin and PGE1; type: in vivo; settings: 1000 mg/kg p.o.; with carrageenin + PGE1; 60 min after carrageenin
Method: The three groups of male Sprague-Dowley rats of total six groups, the respective present substances, Specimens Nos. 4, 7 and 8 were administered forcibly by oral route at a rate of 1000 mg/kg, the other three groups of the same kind of rats being administered nothing at this time.
After 60 min of the administration, 0.1 ml of an aqueous solution of carrageenin (1 mg) and PGE1 (0.1 μg) was injected onto the hind paw of the four groups of the rats including the three groups administered with the present substance. To one group of remaining two groups not administered with the present substance, 0.1 ml of an aqueous solution containing only carrageenin at 1% was injected, and to the other one group not administered with the present substance, an aqueous solution containing only PGE1 was injected.
The volume of the thus swollen foot of the groups of the thus treated rats was measured by the water-displacement method, and the results are shown in Table 17 by the increment of the volume of foot as compared to the volume of foot before the treatment as percentage.

[3] = system: female spontaneously hypertensive rats (SHR); experiment: Diuretic effect and 6-keto PGF1α in blood; type: in vivo, rat (SHR); settings: for Level of 6-keto PGF1α in blood: control 3.0
Method: Groups of female spontaneously hypertensive rats (SHR) kept in fasting for 12 hours and abstained from water for 2 hours were treated by forced oral administration of the present substance (each of Specimens Nos. 4, 7 and 8) at respective rates of 1 and 5 g/kg dissolved in 8 ml (per 200 g b.w.) of an aqueous physiological saline solution, control group being administered only with the aqueous physiological saline solution in an amount of 8 ml/200 g b.w.
The amount of excreted urine of the rats was measured every hour from one hour after the administration for 6 times, and the percentages of the volume of urine to the volume of the aqueous physiological saline solution containing the present substance formerly administered (8 ml per 200 g b.w.) are shown in Table 19.
In the next place, after 6 hours of the administration, all animals were sacrificed to collect the whole blood for obtaining its plasma fraction. The ether-extract of the plasma fraction was separated by thin-layer chromatography and after converting the thus separated substances into methyloximesilyl derivatives, the variation of 6 keto PGF1α was examined by gas-chromatography-mass-spectrography.

[4] = 1 g/kg p.o., 2 hours, control 9
[5] = 1 g/kg p.o., 3 hours, control 22
[6] = 1 g/kg p.o., 4 hours, control 26
[7] = 1 g/kg p.o., 5 hours, control 28
[8] = 1 g/kg p.o., 6 hours, control 30
[9] = 5 g/kg p.o., 2 hours, control 9
[10] = 5 g/kg p.o., 3 hours, control 22
[11] = 5 g/kg p.o., 4 hours, control 26
[12] = 5 g/kg p.o., 5 hours, control 28
[13] = 5 g/kg p.o., 6 hours, control 30

| SMILES | hemorrhage in the stomach (dog's stomach) | level of intra-platelet cyclic AMP (FIG. 7) [1] | Alteration of blood pressure, Case (b) (male SHR rats) | Alteration of blood pressure, Case (a) (male SHR rats) | Blood sugar [2] | Percentage increment of volume of foot (male Sprague-Dowley rats) | Volume of urine ([3]; 1 g/kg p.o., 1 hour, control 2) | Volume of urine [3, 4] | Volume of urine [3, 5] | Volume of urine [3, 6] | Volume of urine [3, 7] | Level of 6-keto PGF1α in blood ([3]; 1 g/kg p.o., 6 hours) | Volume of urine [3, 8] | Volume of urine ([3]; 5 g/kg p.o., 1 hour, control 2) | Volume of urine [3, 9] | Volume of urine [3, 10] | Volume of urine [3, 11] | Volume of urine [3, 12] | Volume of urine [3, 13] | Level of 6-keto PGF1α in blood ([3]; 5 g/kg p.o., 6 hours) |
| --- | --- | --- | --- | --- | --- | --- | --- | --- | --- | --- | --- | --- | --- | --- | --- | --- | --- | --- | --- | --- |
| O=C(O)c1ccc(NC2OC[C@@H](O)[C@H](O)[C@H]2O)cc1 (stereo partly drawn) [Specimen No. 7, Sodium p-aminobenzoate-N--D-xyloside] | no hemorrhage in the stomach was found | raising the level of intra-platelet cellular cyclic AMP | 0 mmHg | -20 mmHg | 165.0 ± 11.0 mg/100 ml | 28.2% | 4% | 38% | 45% | 48% | 63% | 3.5 ng/mL | 72% | 5% | 50% | 66% | 80% | 92% | 100% |  |
| C[C@@H]1OC(Nc2ccc(C(=O)O)cc2)[C@H](O)[C@H](O)[C@H]1O (stereo partly drawn) [Specimen No. 8, Sodium p-aminobenzoate-N--L-rhamnoside] | no hemorrhage in the stomach was found | raising the level of intra-platelet cellular cyclic AMP | 0 mmHg | -15 mmHg | 110.1 ± 5.5 mg/100 ml | 29.7% | 5% | 39% | 47% | 50% | 65% | 3.2 ng/mL | 68% | 5% | 43% | 60% | 70% | 77% | 93% | 3.7 ng/mL |
| O=C(O)c1ccc(NC2O[C@H](CO)[C@@H](O)[C@H](O)[C@@H]2O)cc1 (stereo partly drawn) [Specimen No. 4, Sodium p-aminobenzoate-N--D-mannoside] | no hemorrhage in the stomach was found | raising the level of intra-platelet cellular cyclic AMP | -5 mmHg | -20 mmHg | 133.6 ± 8.3 mg/100 ml | 32.5% | 6% | 40% | 46% | 50% | 60% | 3.3 ng/mL | 63% | 7% | 40% | 50% | 52% | 78% | 91% | 3.5 ng/mL |
